What was measured:
Format in all cases: cell-based
SMARCA2 [1] = target: T1, SMARCA2 (Homo sapiens, UniProt P51531); test: MSD SMARCA2 degradation in A549 cell line; conditions: for SMARCA2 MSD A549 degradation 24 h: Average Dmax % / DC50: A549 cells; for DC50 / Dmax: 24 h; for DC50: read-out: SMARCA2 MSD A549 degradation 24 h: Average external-Abs DC50; for Dmax: A549, A549 cells
Experimental: Example 10. MSD SMARCA2 Degradation in A549 Cell Line
Cells were seeded into 96-well plates (A549 cells: 2×10^4 cells/well/100 ul media) and incubated overnight. The next day, 200 nL compound were added into the intermediate plate with Echo (Labcyte 550) from source plate containing a 3-fold serial dilution from top concentration of 1 mM. The culture medium was changed with 8 0ul of fresh medium and 80 μL of 2× compound solution was added into the well to make a final concentration of 1000 nM, 333.3 nM, 111.1 nM, 37.04 nM, 12.35 nM, 4.115 nM, 1.372 nM, 0.457 nM, 0.152 nM and 0 nM (DMSO). The wells were mixed and then incubated for 24 hours. The media was aspirated from the cultures and 60 ul pre-chilled PIPA lysis buffer (Boston BioProducts BP-115D) with protease/phosphatase inhibitor (Roche 05892791001/Roche 04906837001) was added into the well to lyze the cells for 20 minutes at 4° C. The MSD plate (L15XA) was coated with 40 uL cell lysate and incubated at 4° C. overnight. The next day, the plate was washed three times with TBST (CST #9997S), 150 ul/well. The MSD plates was blocked with 150 ul blocking buffer per well and shaked for 1 hr at RT, 600 rpm. The blocking buffer was 3% Blocker A (MSD, R93BA-4) in TBST. The MSD plate was washed three times with 150 uL/well of TBST and 25 ul/well of detection antibody (Rabbit anti-SMARCA2/BRM antibody, 100 μg/mL, ab223735) was added at final concentration of 1 μg/mL diluted in 1% Blocking buffer and shaken for 1 hour at RT, 600 rpm. The MSD plate was washed three times with 150 ul/well of TBST and 25 ul/well of SULFO-TAG anti-rabbit antibody (MSD, R32AB-1) was added at final concentration of 1 μg/ml diluted in 1% Blocking buffer and shaken for 1 hour at RT, 600 rpm. The MSD plate was washed three times with 150 uL/well of TBST and 150 ul/well of 2× MSD reading buffer diluted from 4× (MSD, R92TC-2) with water was added. Lastly, the MSD instrument was read.
The letter codes for SMARCA2 degradation potency (DC50) include: A (<10 nM), B (10-50 nM), C (>50-100 nM), and D (>100 nM). The letter codes for the percentage of SMARCA degradation after 24 hours (Dmax %) include: A (>90% degradation), B (>70-90% degradation), C (50-70% degradation), and D (<50% degradation).

SMARCA2 [2] = target: T1, SMARCA2; test: SMARCA2 Western blot degradation in MV4-11 cells; design: SMARCA2/SMARCA4 protein degradation selectivity in MV4-11 cells; endogenous in cells; host or cells: MV4-11; conditions: for Dmax: MV4-11, MV4-11 cells, read-out: SMARCA2 MSD MV411 degradation 24 h: average Dmax %; for Dmax / DC50 / SMARCA2 MSD MV411 degradation 24 h: average Dmax %: 24 h; for DC50 / SMARCA2 MSD MV411 degradation 24 h: average Dmax % / Selectivity in MV411: MV4-11 cells; for DC50: read-out: SMARCA2 MSD MV411 degradation 24 h: Mean external-Abs DC50; for Selectivity in MV411: SMARCA2/4 selectivity
SMARCA4 = target: T2, SMARCA4 (Homo sapiens, UniProt P51532); test: SMARCA4 Western blot degradation in MV4-11 cells; conditions: 24 h; for Dmax: MV4-11, MV4-11 cells, read-out: SMARCA4 MSD MV411 degradation 24 h: average Dmax %; for DC50: MV4-11 cells, read-out: SMARCA4 MSD MV411 degradation 24 h: Mean external-Abs DC50
T2 construct: SMARCA2/SMARCA4 protein degradation selectivity in MV4-11 cells; endogenous in cells; host or cells: MV4-11
Experimental: Example 11. SMARCA2 and SMARCA4 Western Blot MV4-11 Degradation
Cells were seeded into 6-well plates (MV4-11:4×10^6 cells/well/1 ml) and 1 ml of 2× compound solution was added into the well to make the final concentration and the plates were mixed well and incubated for 24 hours (No cytotoxicity was observed). The cell were collected with media and spun at 3000 rpm for 5 minutes. The supernatant was aspirated and the well and the cells were washed with cold PBS once and combined for centrifugation again; the supernatant aspirated again. 200 uL pre-chilled RIPA lysis buffer (Boston BioProducts BP-115D) with protease/phosphatase inhibitor (Roche 05892791001/Roche 04906837001) was directly added into the tube to lyze the cells for 20 minutes on ice. The cell lysate were collected into EP tubes and spun at 13000 rpm for 20 minutes and 72 uL supernatant was transferred to a fresh EP tube containing 18 μL of 5× loading buffer (Beyotime Bio P0015) to make the loading samples. The samples were heated to 100° C. for 10 minutes and cooled to RT and microcentrifuged. 20 μL of samples were loaded onto SDS-PAGE gel (Novex, WG1402BOX) and the gel was run at 80 V for 20 minutes and 120 V for 1.5 hours. The samples were electrotransfer to a NC membrane using wet-transfer method with 250 mA for 2.5 hours. The membrane was blocked with LICOR blocking buffer (LI COR,927-50000) for 1 hour. The membrane was washed three times with TBST(CST #9997S), 5 minutes each. Incubation was performed with primary antibody prepared in blocking buffer with 0.1% Tween-20 (Solarbio, P8220) at 4° C. overnight (Anti-SMARCA2/BRM antibody (ab15597) 1:500; Anti-BRG1 antibody [EPR3912](ab108318) 1:1000; Rabbit anti-Bafl80 antibody [EPR15860](Abcam,ab196022) 1:1000; mouse anti-beta-Actin (8H10D10) (CST #3700) 1:10000). The membrane was washed three times with TBST, 5 minutes each. Incubation with secondary antibody was performed for 1 hour at RT (anti-rabbit IgG (Licor,926-32211) 1:5000; anti-mouse IgG (LI-COR, 926-68070) 1:5000). The membrane was washed three times with 5 minutes each and lastly the LiCOR was read.
The letter codes for SMARCA2/4 degradation potency (DC50) include: A (<1 nM), B (1-10 nM), C (>10-100 nM), and D (>100 nM). The letter codes for the percentage of SMARCA2/4 degradation after 24 hours (Dmax %) include: A (>90% degradation), B (>70-90% degradation), C (50-70% degradation), and D (<50% degradation). The letter codes of SMARCA2/4 selectivity include: A (>500 fold), B (>100-500 fold), C (10-100 fold), and D (<10 fold). Table 8. SMARCA2/4 Selectivity Results

T1 sequence (P51531 whole entry): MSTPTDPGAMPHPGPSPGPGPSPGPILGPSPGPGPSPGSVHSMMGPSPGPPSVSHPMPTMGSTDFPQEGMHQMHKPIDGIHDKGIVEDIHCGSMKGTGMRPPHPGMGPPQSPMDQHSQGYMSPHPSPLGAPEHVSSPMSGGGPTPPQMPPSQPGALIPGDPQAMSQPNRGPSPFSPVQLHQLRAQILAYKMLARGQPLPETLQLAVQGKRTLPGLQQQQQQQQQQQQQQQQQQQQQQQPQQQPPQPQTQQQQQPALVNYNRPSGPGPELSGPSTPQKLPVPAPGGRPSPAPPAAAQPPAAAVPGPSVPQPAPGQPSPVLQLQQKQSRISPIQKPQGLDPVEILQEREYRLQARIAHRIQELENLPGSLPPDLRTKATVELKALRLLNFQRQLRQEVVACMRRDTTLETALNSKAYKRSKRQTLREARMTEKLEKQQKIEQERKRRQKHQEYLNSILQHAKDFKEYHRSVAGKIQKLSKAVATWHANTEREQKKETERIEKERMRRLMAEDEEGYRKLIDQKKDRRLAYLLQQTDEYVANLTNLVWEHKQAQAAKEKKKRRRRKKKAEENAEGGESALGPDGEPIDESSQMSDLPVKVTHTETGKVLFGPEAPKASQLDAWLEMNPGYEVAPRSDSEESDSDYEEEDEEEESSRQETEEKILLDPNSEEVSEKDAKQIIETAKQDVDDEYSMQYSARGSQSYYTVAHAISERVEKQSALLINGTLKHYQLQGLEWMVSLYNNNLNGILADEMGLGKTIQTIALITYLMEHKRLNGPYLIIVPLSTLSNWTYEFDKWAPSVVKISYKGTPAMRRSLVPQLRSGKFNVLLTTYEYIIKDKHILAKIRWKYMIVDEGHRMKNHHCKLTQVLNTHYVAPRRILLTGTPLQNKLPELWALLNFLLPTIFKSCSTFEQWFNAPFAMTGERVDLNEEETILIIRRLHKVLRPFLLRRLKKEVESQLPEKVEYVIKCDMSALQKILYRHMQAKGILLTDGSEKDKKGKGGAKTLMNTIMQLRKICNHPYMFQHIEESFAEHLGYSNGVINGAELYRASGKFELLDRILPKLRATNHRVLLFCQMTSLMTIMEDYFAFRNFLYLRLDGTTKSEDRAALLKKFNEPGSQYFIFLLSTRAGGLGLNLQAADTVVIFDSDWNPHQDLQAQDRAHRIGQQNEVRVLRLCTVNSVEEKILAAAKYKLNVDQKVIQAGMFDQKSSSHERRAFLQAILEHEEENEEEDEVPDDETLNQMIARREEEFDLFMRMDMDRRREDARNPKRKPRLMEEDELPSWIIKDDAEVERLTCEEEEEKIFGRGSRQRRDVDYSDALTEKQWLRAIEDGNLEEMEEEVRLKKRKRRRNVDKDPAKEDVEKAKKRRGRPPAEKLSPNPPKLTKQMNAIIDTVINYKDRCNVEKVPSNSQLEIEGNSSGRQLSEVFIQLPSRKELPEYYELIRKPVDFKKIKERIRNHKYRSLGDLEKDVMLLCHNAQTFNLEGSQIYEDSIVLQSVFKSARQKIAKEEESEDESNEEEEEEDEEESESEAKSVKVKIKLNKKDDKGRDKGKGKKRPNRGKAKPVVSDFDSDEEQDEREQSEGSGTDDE
T2 sequence (P51532 whole entry): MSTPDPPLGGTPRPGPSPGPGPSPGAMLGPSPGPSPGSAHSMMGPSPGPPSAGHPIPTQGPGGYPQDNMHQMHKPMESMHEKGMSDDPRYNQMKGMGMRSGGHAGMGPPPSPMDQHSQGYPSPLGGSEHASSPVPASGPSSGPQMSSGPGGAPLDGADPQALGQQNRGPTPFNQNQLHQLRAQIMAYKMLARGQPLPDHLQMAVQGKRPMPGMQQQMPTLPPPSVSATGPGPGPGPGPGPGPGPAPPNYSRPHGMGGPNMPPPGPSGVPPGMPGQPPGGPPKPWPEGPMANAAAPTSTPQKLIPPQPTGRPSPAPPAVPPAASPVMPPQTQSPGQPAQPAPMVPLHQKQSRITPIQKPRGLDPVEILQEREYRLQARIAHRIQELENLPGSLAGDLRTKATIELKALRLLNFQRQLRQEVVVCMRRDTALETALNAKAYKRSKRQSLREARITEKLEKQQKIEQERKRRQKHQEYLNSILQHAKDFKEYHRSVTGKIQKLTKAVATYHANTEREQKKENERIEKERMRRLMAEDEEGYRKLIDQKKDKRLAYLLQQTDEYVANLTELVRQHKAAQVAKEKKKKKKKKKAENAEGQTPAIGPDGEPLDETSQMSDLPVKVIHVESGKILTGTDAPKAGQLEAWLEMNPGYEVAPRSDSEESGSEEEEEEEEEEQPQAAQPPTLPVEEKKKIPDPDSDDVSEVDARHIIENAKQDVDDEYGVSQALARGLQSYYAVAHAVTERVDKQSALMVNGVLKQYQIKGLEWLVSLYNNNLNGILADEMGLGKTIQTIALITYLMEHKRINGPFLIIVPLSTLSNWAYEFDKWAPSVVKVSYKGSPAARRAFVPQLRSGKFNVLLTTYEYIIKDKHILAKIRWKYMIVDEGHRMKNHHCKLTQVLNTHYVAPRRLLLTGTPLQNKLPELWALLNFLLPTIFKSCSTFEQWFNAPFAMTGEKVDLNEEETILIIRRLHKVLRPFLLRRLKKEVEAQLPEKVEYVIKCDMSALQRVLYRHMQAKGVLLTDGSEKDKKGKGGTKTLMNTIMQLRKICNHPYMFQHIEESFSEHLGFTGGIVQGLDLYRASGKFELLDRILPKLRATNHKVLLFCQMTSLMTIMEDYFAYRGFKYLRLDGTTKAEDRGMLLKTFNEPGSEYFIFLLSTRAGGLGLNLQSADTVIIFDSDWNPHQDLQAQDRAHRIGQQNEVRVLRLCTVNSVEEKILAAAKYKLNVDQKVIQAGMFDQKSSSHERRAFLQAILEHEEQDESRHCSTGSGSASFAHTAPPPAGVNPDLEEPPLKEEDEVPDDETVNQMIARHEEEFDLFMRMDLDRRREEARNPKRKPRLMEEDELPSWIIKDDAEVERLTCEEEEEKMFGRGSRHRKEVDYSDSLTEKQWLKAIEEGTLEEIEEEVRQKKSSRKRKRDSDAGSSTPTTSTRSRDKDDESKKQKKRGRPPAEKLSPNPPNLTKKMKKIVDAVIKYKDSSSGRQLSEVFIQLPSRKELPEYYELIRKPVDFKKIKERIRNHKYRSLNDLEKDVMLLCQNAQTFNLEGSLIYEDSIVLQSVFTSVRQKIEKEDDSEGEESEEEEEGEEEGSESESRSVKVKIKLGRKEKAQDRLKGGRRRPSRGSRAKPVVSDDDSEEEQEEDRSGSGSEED

| SMILES | SMARCA2 MSD A549 degradation 24 h: Average Dmax % (SMARCA2 [1]) | DC50 (SMARCA2 [1]) | Dmax (SMARCA2 [2]) | DC50 (SMARCA2 [2]) | Dmax (SMARCA2 [1]) | SMARCA2 MSD MV411 degradation 24 h: average Dmax % (SMARCA2 [2]) | Dmax (SMARCA4) | DC50 (SMARCA4) | Selectivity in MV411 (SMARCA2 [2]) |
| --- | --- | --- | --- | --- | --- | --- | --- | --- | --- |
| C#Cc1ccc(CNC(=O)[C@@H]2C[C@@H](O)CN2C(=O)[C@@H](NC(=O)[C@H]2CCC3(CC2)C[C@H](N2CCC(c4cnc(N5CCN6c7cc(-c8cccc(Cl)c8O)nnc7NC[C@H]6C5)nc4)CC2)C3)C(C)(C)C)cc1 (single isomer, unassigned) [I-105] | A (A (>90% degradation)) | > 100 nM | 50 to 70% | 10 to 100 nM | – | – | – | – | – |
| Cc1cc(F)ccc1C#CCNC(=O)[C@@H]1C[C@@H](O)CN1C(=O)[C@@H](NC(=O)[C@H]1CCC2(CC1)C[C@H](N1CCC(c3cnc(N4CCN5c6cc(-c7ccccc7O)nnc6NC[C@H]5C4)nc3)CC1)C2)C(C)(C)C (single isomer, unassigned) [I-106] | – | > 100 nM | < 50% | > 100 nM | < 50% | – | – | – | – |
| Cc1ncsc1-c1ccc(CNC(=O)[C@@H]2C[C@@H](O)CN2C(=O)[C@@H](NC(=O)[C@H]2CCC3(CC2)C[C@H](N2CCN(c4cnc(N5CCc6[nH]c7nnc(-c8ccccc8O)cc7c6[C@H]5C)nc4)CC2)C3)C(C)(C)C)cc1 (single isomer, unassigned) [I-112] | – | 50 to 100 nM | 50 to 70% | 10 to 100 nM | > 90% | – | – | – | – |
| Cc1ncsc1-c1ccc(CNC(=O)[C@@H]2C[C@@H](O)CN2C(=O)[C@@H](NC(=O)[C@H]2CCC3(CC2)C[C@H](N2CCN(c4cnc(N5CCc6[nH]c7nnc(-c8ccccc8O)cc7c6[C@H]5C)nc4)CC2)C3)C(C)(C)C)cc1 (single isomer, unassigned) [I-118] | B (B (>70-90% degradation)) | > 100 nM | – | 10 to 100 nM | – | C (C (50-70% degradation)) | – | – | – |
| C#Cc1ccc(CNC(=O)[C@@H]2C[C@@H](O)CN2C(=O)[C@@H](NC(=O)[C@H]2CCC3(CC2)C[C@H](N2CCC(c4cnc(N5CCN6c7cc(-c8cccc(Cl)c8O)nnc7NC[C@H]6C5)nc4)CC2)C3)C(C)(C)C)cc1 (single isomer, unassigned) [I-152] | – | > 100 nM | – | 10 to 100 nM | 70 to 90% | C (C (50-70% degradation)) | – | – | – |
| C#Cc1ccc(CNC(=O)[C@@H]2C[C@@H](O)CN2C(=O)[C@@H](NC(=O)[C@H]2CCC3(CC2)C[C@H](N2CCC(c4cnc(N5CCN6c7cc(-c8cccc(Cl)c8O)nnc7NC[C@@H]6C5)nc4)CC2)C3)C(C)(C)C)cc1 (single isomer, unassigned) [I-153] | – | > 100 nM | 70 to 90% | 1 to 10 nM | > 90% | – | – | – | – |
| C#CCOc1cc(C(C(=O)N2C[C@H](O)C[C@H]2C(=O)NCc2ccc(-c3scnc3C)cc2O[C@H]2CC[C@@H](N3CCC(c4cnc(N5CCc6[nH]c7nnc(-c8ccccc8O)cc7c6[C@@H]5C)nc4)CC3)CC2)C(C)C)on1 (some centres unmarked) [I-39] | – | > 100 nM | – | – | 50 to 70% | – | – | – | – |
| Cc1ncsc1-c1ccc(CNC(=O)[C@@H]2C[C@@H](O)CN2C(=O)[C@@H](NC(=O)C2(F)CC2)C(C)(C)C)c(OC2CN(CCN3CCC(c4cnc(N5CCc6[nH]c7nnc(-c8ccccc8O)cc7c6C5C)nc4)CC3)C2)c1 (some centres unmarked) [I-44] | – | – | 70 to 90% | 10 to 100 nM | – | – | 70 to 90% | > 100 nM | D (D (<10 fold)) |
| Cc1ncsc1-c1ccc(CNC(=O)[C@@H]2C[C@@H](O)CN2C(=O)[C@@H](NC(=O)N2CCC3(CC2)CC(N2CCC(c4cnc(N5CCc6[nH]c7nnc(-c8ccccc8O)cc7c6[C@@H]5C)nc4)CC2)C3)C(C)(C)C)cc1 [I-59] | – | – | – | – | < 50% | – | – | – | – |
| Cc1ncsc1-c1ccc(CNC(=O)[C@@H]2C[C@@H](O)CN2C(=O)[C@@H](NC(=O)N2CCC3(CC2)CC(N2CCC(c4cnc(N5CCN6c7cc(-c8ccccc8O)nnc7NC[C@H]6C5)nc4)CC2)C3)C(C)(C)C)cc1 [I-67] | – | – | < 50% | > 100 nM | – | – | < 50% | > 100 nM | C (C (10-100 fold)) |
| Cc1ncsc1-c1ccc(CNC(=O)[C@@H]2C[C@@H](O)CN2C(=O)[C@@H](NC(=O)N2CCC3(CCC(N4CCC(c5cnc(N6CCN7c8cc(-c9ccccc9O)nnc8NC[C@H]7C6)nc5)CC4)CC3)CC2)C(C)(C)C)cc1 [I-68] | – | – | 50 to 70% | 10 to 100 nM | – | – | < 50% | > 100 nM | C (C (10-100 fold)) |
| Cc1ncsc1-c1ccc(CNC(=O)[C@@H]2C[C@@H](O)CN2C(=O)[C@@H](NC(=O)N2CC3(CCC(N4CCC(c5cnc(N6CCN7c8cc(-c9ccccc9O)nnc8NC[C@H]7C6)nc5)CC4)CC3)C2)C(C)(C)C)cc1 [I-69] | – | – | > 90% | < 1 nM | – | – | > 90% | 1 to 10 nM | D (D (<10 fold)) |
| Cc1ncsc1-c1ccc(CNC(=O)[C@@H]2C[C@@H](O)CN2C(=O)[C@@H](NC(=O)[C@H]2CCC3(CC2)C[C@H](N2CCC(c4cnc(N5CCN6c7cc(-c8ccccc8O)nnc7NC[C@H]6C5)nc4)CC2)C3)C(C)(C)C)cc1 (some centres unmarked) [I-71] | – | – | – | 1 to 10 nM | – | – | – | > 100 nM | A (A (>500 fold)) |
| Cc1ncsc1-c1ccc(CNC(=O)[C@@H]2C[C@@H](O)CN2C(=O)[C@@H](NC(=O)N2CC3(CC(N4CCN(c5ccnc(N6CCN7c8cc(-c9ccccc9O)nnc8NC[C@H]7C6)n5)CC4)C3)C2)C(C)(C)C)cc1 [I-72] | – | – | 70 to 90% | < 1 nM | – | – | 70 to 90% | 1 to 10 nM | D (D (<10 fold)) |
| Cc1cc(F)ccc1C#CCNC(=O)[C@@H]1C[C@@H](O)CN1C(=O)[C@@H](NC(=O)[C@H]1CCC2(CC1)C[C@H](N1CCC(c3cnc(N4CCN5c6cc(-c7ccccc7O)nnc6NC[C@H]5C4)nc3)CC1)C2)C(C)(C)C (some centres unmarked) [I-115] | – | > 100 nM | – | – | – | – | – | – | – |
